Test results published in patent EP4782453A1 (Beyang Therapeutics Co., Ltd., priority 2023, dated 2025).
pEC50, pIC50: −log10 of the molar value. Like-named read-outs stand apart in the source and are kept apart here.

Assays:
MEIS1 gene expression = test: Inhibition of MEIS1 gene expression in human tumor cells (qRT-PCR), MV-4-11; type: cell-based; details: MV4-11, MV-4-11 (carrying MLL-AF4), 48 hours of incubation, relative MEIS1 gene expression vs GAPDH, read-out: MV-4-11 MEISI EC50
Description: Experimental Example 3: Evaluation of Inhibitory Activity of Compounds Against MEISI Gene Expression in Human Tumor Cells
The effect of test samples on MEIS1 gene expression in vitro cultured human leukemia cells MV-4-11 (carrying MLL-AF4), MOLM-13 (carrying MLL-AF9), and OCI-AML3 (carrying NPM1c) was studied.
• Human acute lymphoblastic leukemia cells MV-4-11, purchased from American Type Culture Collection, Catalog Number: CRL-9591; • Human acute myeloid leukemia cells MOLM-13, purchased from COBIOER BIOSCIENCES CO., LTD, Catalog Number: CBP60678; • Human acute myeloid leukemia cells OCI-AML3, purchased from COBIOER BIOSCIENCES CO., LTD, Catalog Number: CBP60817; • MEIS1 Primer/Probe, purchased from IDT, Catalog Number: 40831613; and • GAPDH Primer/Probe, purchased from IDT, Catalog Number: 22214836.
MV-4-11 cells were cultured in an IMDM medium containing 10% fetal bovine serum, or MOLM-13 and OCI-AML3 cells were cultured in an RPMI-1640 medium containing 20% fetal bovine serum, each supplemented with 100 U·mL^-1 penicillin and 100 µg·mL^-1 streptomycin. These cells were cultured at 37°C with 5% CO2. The suspensions of individual cell lines were prepared in their respective media and seeded into 48-well plates at a density of 100,000 cells/well. On the day of the experiment, a compound stock solution was diluted in a 6-fold gradient using DMSO. Each gradient-diluted stock solution was then further diluted 250-fold with a complete medium to prepare a series of working solutions at different concentrations. Next, 250 µL of working solution (containing the complete medium with a 2-fold serial concentration of the test compound or a positive control compound, or containing a control complete medium) was added to each well. After 48 hours of incubation, cells from the 48-well plate were collected into 1 mL centrifuge tubes, centrifuged at 1000 rpm for 5 minutes, and the complete medium was removed. Cells were washed twice with 1 mL PBS and centrifuged to remove PBS. Total RNA was extracted using the RNeasy Mini Kit (250) (QIAGEN, 74106). The threshold cycle (Ct) value for gene expression was determined using the HiScript II U+ One Step qRT-PCR Probe Kit (Vazyme) (Vazyme, Q223-01), with 3 replicates per sample. The prepared reaction mixture was placed in an ABI 7500 real-time PCR instrument, and the reaction proceeded following the procedures below. [formula]
Next, for the relative MEIS1 gene expression, the concentration (EC50) that inhibits 50% of relative MEIS1 gene expression was calculated using GraphPad Prism 8 software.

Menin-MLL = biological target: T1, Menin-MLL (Homo sapiens, UniProt O00255); test: Inhibitory activity against Menin-MLL binding (fluorescence polarization); details: 150 nM His-Menin, 15 nM FITC-MLL, 25°C for 60 min
T1 construct: His-Menin (M1-L615 end); purchased BIORTUS BP9210
T1 sequence (O00255 1-615 isoform O00255-1): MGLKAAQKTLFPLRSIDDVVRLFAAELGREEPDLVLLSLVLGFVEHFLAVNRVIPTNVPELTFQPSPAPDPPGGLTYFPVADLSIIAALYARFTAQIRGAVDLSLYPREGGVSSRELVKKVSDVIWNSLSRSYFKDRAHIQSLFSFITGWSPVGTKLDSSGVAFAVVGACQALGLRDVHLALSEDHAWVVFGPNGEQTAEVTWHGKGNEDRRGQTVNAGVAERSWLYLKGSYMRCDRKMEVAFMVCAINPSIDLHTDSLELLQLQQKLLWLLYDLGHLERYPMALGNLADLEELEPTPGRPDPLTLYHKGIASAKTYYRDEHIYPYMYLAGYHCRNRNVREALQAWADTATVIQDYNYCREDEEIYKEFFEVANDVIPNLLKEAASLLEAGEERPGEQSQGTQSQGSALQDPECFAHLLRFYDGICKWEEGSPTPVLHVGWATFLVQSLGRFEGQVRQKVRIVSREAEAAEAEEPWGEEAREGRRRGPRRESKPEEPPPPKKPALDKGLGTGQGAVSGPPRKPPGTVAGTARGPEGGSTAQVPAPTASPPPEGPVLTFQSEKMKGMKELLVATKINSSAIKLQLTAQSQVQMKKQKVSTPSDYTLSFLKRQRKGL
Procedure, shortened: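 Fluorescence polarization competition: compound and 150 nM His-tagged menin (residues M1-L615) sit 15 min at 25 °C in pH 7.5 HEPES buffer with NaCl, DTT and BSA; 15 nM FITC-labelled MLL peptide then binds for 60 min. IC50 fitted sigmoidally from mP values, duplicate wells.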

[1] = Menin-MLL IC50, fluorescence polarization
[2] = fluorescence polarization, read-out: Menin-MLL IC50

SMILES | pEC50 (MEIS1 gene expression) | pIC50 (Menin-MLL; [1]) | pIC50 (Menin-MLL; [2]) | pIC50 (Menin-MLL; read-out: Menin-MLL IC50, fluorescence polarization)
CCN(C(=O)c1cc(F)ccc1-c1cc(C2(F)CN(C(=O)C3NC4CCC3CC4)C2)cn2c(C)ncc12)C(C)C [Example 75, N-ethyl-5-fluoro-2-(6-{3-fluoro-1-[(1R,3S,4S)-2-azabicyclo[2.2.2]octan-3-carbonyl]azacyclobutan-3-yl}-3-methylimidazo[1,5-a]pyridin-8-yl)-N-(isopropyl) benzamide] | 7.09 | 7.76 | – | –
CCN(C(=O)c1cc(F)ccc1-c1cc(C2CCN(Cc3ccc(-c4cc(OC)c(OC)nn4)cc3)C2)cn2c(C)ncc12)C(C)C (centres unmarked) [Example 83] | 7.62 | – | 8.22 | –
CCS(=O)(=O)N[C@H]1CC[C@H](CN2CC(c3cc(-c4ccc(F)cc4C(=O)N4CCOC[C@H]4C)c4cnc(C)n4c3)C2)CC1 [Example 134, N-[(1r,4r)-4-{[3-(8-{4-fluoro-2-[(3R)-3-methylmorpholin-4-carbonyl]phenyl}-3-methylimidazo[1,5-a]pyridin-6-yl)azacyclobutan-1-yl]methyl}cyclohexyl]ethan-1-sulfonamide] | 7.26 | 7.76 | – | –
CCN(C(=O)c1cc(F)ccc1-c1cc(C2CN(C[C@H]3CC[C@H](NS(=O)(=O)CC)CC3)C2)cn2c(C)nc(F)c12)C(C)C [Example 137] | 7.80 | – | 8.19 | –
CCS(=O)(=O)N[C@H]1CC[C@H](CN2CC(c3cc(-c4ccc(F)cc4C(=O)N(CC(F)F)C(C)C)c4cnc(C)n4c3)C2)CC1 [Example 138] | 7.82 | – | 8.22 | –
COCCN(C)CCCC(C(C)C)N1CC(c2cc(-c3ccc(F)cc3C(=O)N(CC(F)F)C(C)C)c3c(F)nc(C)n3c2)C1 (centres unmarked) [Example 142, N-(2,2-difluoroethyl)-5-fluoro-2-[1-fluoro-6-(1-{6-[(2-methoxyethyl)(methyl)amino]-2-methylhexan-3-yl}azacyclobutan-3-yl)-3-methylimidazo[1,5-a]pyridin-8-yl]-N-(isopropyl)benzamide] | 8.22 | – | 8.00 | –
COCCN(C)CCCC(C(C)C)N1CC(c2cc(-c3ccc(F)cc3C(=O)N3CCOCC3C)c3cnn(C)c3c2)C1 (centres unmarked) [Example 185] | 7.26 | – | 7.84 | –
COCCN(C)CCC[C@H](C(C)C)N1CC(c2cc(-c3ccc(F)cc3C(=O)N3[C@H](C)COC[C@H]3C)c3cnn(C)c3c2)C1 [Example 186-2, [(4R)-4-[3-(4-{2-[(3R,5R)-3,5-dimethylmorpholin-4-carbonyl]-4-fluorophenyl}-1-methyl-1H-indazol-6-yl)azacyclobutan-1-yl]-5-methylhexyl](2-methoxyethyl)methylamine] | 8.42 | – | 8.28 | –
CCS(=O)(=O)N[C@H]1CC[C@H](CN2CC(c3cc(-c4ccc(F)cc4C(=O)N4[C@H](C)COC[C@H]4C)c4c(F)nc(C)n4c3)C2)CC1 [Example 197, N-[(1r,4r)-4-{[3-(8-{2-[(3R,5R)-3,5-dimethylmorpholin-4-carbonyl]-4-fluorophenyl}-1-fluoro-3-methylimidazo[1,5-a]pyridin-6-yl)azacyclobutan-1-yl]methyl}cyclohexyl]ethan-1-sulfonamide] | 7.85 | – | – | 8.19
COCCN(C)CCC[C@H](C(C)C)N1CC(c2cc(-c3ccc(F)cc3C(=O)N3CCOC[C@H]3C)c3c(F)nc(C)n3c2)C1 [Example 200-1] | 7.92 | – | 8.37 | –
COC1CCN(CCCC(C(C)C)N2CC(c3cc(-c4ccc(F)cc4C(=O)N4CCOCC4C)c4c(F)nc(C)n4c3)C2)C1 (centres unmarked) [Example 201-1] | 8.47 | – | 8.59 | –
CO[C@@H]1CCN(CCC[C@H](C(C)C)N2CC(c3cc(-c4ccc(F)cc4C(=O)N4CCOC[C@H]4C)c4c(F)nc(C)n4c3)C2)C1 [Example 202] | 8.46 | – | 8.37 | –
COC1CCN(CCC[C@H](C(C)C)N2CC(c3cc(-c4ccc(F)cc4C(=O)N4CCOC[C@H]4C)c4c(F)nc(C)n4c3)C2)CC1 [Example 204, (3R)-4-[5-fluoro-2-(1-fluoro-6-{1-[(3R)-6-(4-methoxypiperidin-1-yl)-2-methylhexan-3-yl]azacyclobutan-3-yl}-3-methylimidazo[1,5-a]pyridin-8-yl)benzoyl]-3-methylmorpholine] | 7.82 | – | 8.32 | –
CC(=O)N1CCC(CN2CC(c3cc(-c4ccc(F)cc4C(=O)N4[C@H](C)COC[C@H]4C)c4c(F)nc(C)n4c3)C2)CC1 [Example 205] | 7.74 | – | 7.99 | –
Cc1nc(F)c2c(-c3ccc(F)cc3C(=O)N3[C@H](C)COC[C@H]3C)cc(C3CN(CC4CCOCC4)C3)cn12 [Example 208] | 7.64 | – | 8.05 | –
CC(=O)N1CCC([C@H](C)N2CC(c3cc(-c4ccc(F)cc4C(=O)N4CCOC[C@H]4C)c4c(F)nc(C)n4c3)C2)CC1 [Example 257-2, 1-{4-[(1S)-1-[3-(1-fluoro-8-{4-fluoro-2-[(3R)-3-methylmorpholin-4-carbonyl]phenyl}-3-methylimidazo[1,5-a]pyridin-6-yl)azacyclobutan-1-yl]ethyl]piperidin-1-yl}ethan-1-one] | 7.72 | – | 7.86 | –
CCNC(=O)N1CCC(CN2CC(c3cc(-c4ccc(F)cc4C(=O)N4CCOC[C@H]4C)c4c(F)nc(C)n4c3)C2)CC1 [Example 261] | 8.07 | – | 8.07 | –
CNC(=O)N1CCC([C@H](C)N2CC(c3cc(-c4ccc(F)cc4C(=O)N4CCOC[C@H]4C)c4c(F)nc(C)n4c3)C2)CC1 [Example 264-2] | 7.74 | – | 8.22 | –
CC(=O)N1CCN(CCC[C@H](C(C)C)N2CC(c3cc(-c4ccc(F)cc4C(=O)N4CCOC[C@H]4C)c4c(F)nc(C)n4c3)C2)CC1 [Example 265] | 7.27 | – | 7.89 | –
Cc1nc(F)c2c(-c3ccc(F)cc3C(=O)N3CCOC[C@H]3C)cc(C3CN([C@H](CCCN4CCN(C)CC4)C(C)C)C3)cn12 [Example 275, (3R)-4-[5-fluoro-2-(1-fluoro-3-methyl-6-{1-[(3R)-2-methyl-6-(4-methylpiperazin-1-yl)hexan-3-yl]azacyclobutan-3-yl}imidazo[1,5-a]pyridin-8-yl)benzoyl]-3-methylmorpholine] | 8.08 | – | 8.49 | –
CCN1CCN(CCC[C@H](C(C)C)N2CC(c3cc(-c4ccc(F)cc4C(=O)N4CCOC[C@H]4C)c4c(F)nc(C)n4c3)C2)CC1 [Example 277] | 8.19 | – | 8.48 | –
CCN(C(=O)c1cc(F)ccc1-c1cc(C2CN([C@@H](C)C3CCN(C(=O)CO)CC3)C2)cn2c(C)nc(F)c12)C(C)C [Example 284-2] | – | – | 8.70 | –
Cc1nc(F)c2c(-c3ccc(F)cc3C(=O)N3CCOC[C@H]3C)cc(C3CN([C@H](CO[C@H]4CCCN(C)C4)C(C)C)C3)cn12 [Example 321-2, (3R)-4-[5-fluoro-2-(1-fluoro-3-methyl-6-{1-[(2S)-3-methyl-1-{[(3S)-1-methylpiperidin-3-yl]oxy}butan-2-yl]azacyclobutan-3-yl}imidazo[1,5-a]pyridin-8yl)benzoyl]-3-methylmorpholine] | – | – | 8.42 | –
